We go through 16 compounds from US10077261B2, “Imidazolin-5-one derivative useful as FASN inhibitors for the treatment of cancer” (Janssen Pharmaceutica NV, priority 2012, dated 2018).

In test [1] the test system is A2780 ovarian cells. Description: A2780 ovarian cell proliferation assay in lipid reduced medium, with palmitate (MTT). The class given is cell-based. The settings on record: Homo sapiens, A2780, 96 h; read-out: pIC50 A2780 Ovarian Cell, With Palmitate (converted). Here is the method: (§1) The biological assays described below correspond to comparative assays for ovarian cell proliferation. […] Compounds active in the absence of palmitate would not be expected to be active in the control.
(§2) 2500 cells were seeded in a 96-well clear well plate in 200 μL RPMI1640 with 10% Fetal Calf Serum (Hyclone), and incubated at 37° C., 5% CO2. Blanks were wells without cells. The next day the culture medium was aspirated and replaced by 160 μL culture medium with 10% Lipid-Reduced Serum (LRS, Hyclone). 20 μL test compound (at concentrations of 30 μM, 10 μM, 3 μM, 1 μM, 0.30 μM, 0.10 μM, 0.03 μM and 0.01 μM)/DMSO dilution followed by 20 μL palmitate-BSA solution were added to a final concentrations of 0.2% DMSO, 25 μM palmitate (Sigma, P0500, 10 mM stock solution in ethanol) 0.2% fatty-acid-free BSA, 0.25% ethanol. After 96 h incubation, an MTT assay was performed. The absorbance was measured at 544 nm on a SPECTRAMAX brand microplate reader (Molecular Devices).
A best fit curve was fitted by a minimum sum of squares method, plotting Controlmin versus test compound concentration.
(§3) Representative compounds of the present invention were tested according to the procedure as described in Biological Example 3 above, with results as listed in Table 8, below.

The target of test [2] is T1, hFASN enzyme (full length) (Homo sapiens, UniProt P49327).
T1 construct: 10 μL hFASN enzyme (full length, 300 ng, purified in house); made in house
Description: Fatty Acid Synthase (FASN) inhibition scintillation proximity assay. The class given is biochemical. The note with it: for inhibition at 10 µM: read-out: Human FASN % inhibition @ 10 μM, 10 μM test compound; for IC50: read-out: Human FASN pIC50 (converted). In outline: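 Purified full-length hFASN (300 ng) converts ^3H-acetyl-CoA plus malonyl-CoA to ^3H-palmitate in 100 mM KH2PO4 pH 7.5, 1 mM DTT; compounds tested at 0.01–30 μM. Product captured on streptavidin imaging beads and read by LEADseeker at 610 nm after ≥24 h; 4-parameter logistic fit versus controls.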
For orientation: SPA uses beads or plates that emit light when radiolabelled molecules are held near them.

The test system of test [3] is A2780 ovarian cells. Description: A2780 ovarian cell proliferation assay in lipid reduced medium, without palmitate (MTT). The class given is cell-based. The settings on record: Homo sapiens, A2780, 96 h; read-out: pIC50 A2780 Ovarian Cell, Without Palmitate (converted). Here is the method:
as §1
as §2, with “ethanol-BSA” for “palmitate-BSA”, “DMSO,” for “DMSO, 25 μM palmitate (Sigma, P0500, 10 mM stock solution in ethanol)”, “incubation” for “incubation,”
where mLC and mHC were the means of the low control wells and high control wells on the plate, after manual exclusion of outliers. A plot of Controlmin versus test compound concentration was fitted to a 4-parameter logistic curve using a non-linear least squares regression method.
as §3

T1 sequence (P49327 whole entry): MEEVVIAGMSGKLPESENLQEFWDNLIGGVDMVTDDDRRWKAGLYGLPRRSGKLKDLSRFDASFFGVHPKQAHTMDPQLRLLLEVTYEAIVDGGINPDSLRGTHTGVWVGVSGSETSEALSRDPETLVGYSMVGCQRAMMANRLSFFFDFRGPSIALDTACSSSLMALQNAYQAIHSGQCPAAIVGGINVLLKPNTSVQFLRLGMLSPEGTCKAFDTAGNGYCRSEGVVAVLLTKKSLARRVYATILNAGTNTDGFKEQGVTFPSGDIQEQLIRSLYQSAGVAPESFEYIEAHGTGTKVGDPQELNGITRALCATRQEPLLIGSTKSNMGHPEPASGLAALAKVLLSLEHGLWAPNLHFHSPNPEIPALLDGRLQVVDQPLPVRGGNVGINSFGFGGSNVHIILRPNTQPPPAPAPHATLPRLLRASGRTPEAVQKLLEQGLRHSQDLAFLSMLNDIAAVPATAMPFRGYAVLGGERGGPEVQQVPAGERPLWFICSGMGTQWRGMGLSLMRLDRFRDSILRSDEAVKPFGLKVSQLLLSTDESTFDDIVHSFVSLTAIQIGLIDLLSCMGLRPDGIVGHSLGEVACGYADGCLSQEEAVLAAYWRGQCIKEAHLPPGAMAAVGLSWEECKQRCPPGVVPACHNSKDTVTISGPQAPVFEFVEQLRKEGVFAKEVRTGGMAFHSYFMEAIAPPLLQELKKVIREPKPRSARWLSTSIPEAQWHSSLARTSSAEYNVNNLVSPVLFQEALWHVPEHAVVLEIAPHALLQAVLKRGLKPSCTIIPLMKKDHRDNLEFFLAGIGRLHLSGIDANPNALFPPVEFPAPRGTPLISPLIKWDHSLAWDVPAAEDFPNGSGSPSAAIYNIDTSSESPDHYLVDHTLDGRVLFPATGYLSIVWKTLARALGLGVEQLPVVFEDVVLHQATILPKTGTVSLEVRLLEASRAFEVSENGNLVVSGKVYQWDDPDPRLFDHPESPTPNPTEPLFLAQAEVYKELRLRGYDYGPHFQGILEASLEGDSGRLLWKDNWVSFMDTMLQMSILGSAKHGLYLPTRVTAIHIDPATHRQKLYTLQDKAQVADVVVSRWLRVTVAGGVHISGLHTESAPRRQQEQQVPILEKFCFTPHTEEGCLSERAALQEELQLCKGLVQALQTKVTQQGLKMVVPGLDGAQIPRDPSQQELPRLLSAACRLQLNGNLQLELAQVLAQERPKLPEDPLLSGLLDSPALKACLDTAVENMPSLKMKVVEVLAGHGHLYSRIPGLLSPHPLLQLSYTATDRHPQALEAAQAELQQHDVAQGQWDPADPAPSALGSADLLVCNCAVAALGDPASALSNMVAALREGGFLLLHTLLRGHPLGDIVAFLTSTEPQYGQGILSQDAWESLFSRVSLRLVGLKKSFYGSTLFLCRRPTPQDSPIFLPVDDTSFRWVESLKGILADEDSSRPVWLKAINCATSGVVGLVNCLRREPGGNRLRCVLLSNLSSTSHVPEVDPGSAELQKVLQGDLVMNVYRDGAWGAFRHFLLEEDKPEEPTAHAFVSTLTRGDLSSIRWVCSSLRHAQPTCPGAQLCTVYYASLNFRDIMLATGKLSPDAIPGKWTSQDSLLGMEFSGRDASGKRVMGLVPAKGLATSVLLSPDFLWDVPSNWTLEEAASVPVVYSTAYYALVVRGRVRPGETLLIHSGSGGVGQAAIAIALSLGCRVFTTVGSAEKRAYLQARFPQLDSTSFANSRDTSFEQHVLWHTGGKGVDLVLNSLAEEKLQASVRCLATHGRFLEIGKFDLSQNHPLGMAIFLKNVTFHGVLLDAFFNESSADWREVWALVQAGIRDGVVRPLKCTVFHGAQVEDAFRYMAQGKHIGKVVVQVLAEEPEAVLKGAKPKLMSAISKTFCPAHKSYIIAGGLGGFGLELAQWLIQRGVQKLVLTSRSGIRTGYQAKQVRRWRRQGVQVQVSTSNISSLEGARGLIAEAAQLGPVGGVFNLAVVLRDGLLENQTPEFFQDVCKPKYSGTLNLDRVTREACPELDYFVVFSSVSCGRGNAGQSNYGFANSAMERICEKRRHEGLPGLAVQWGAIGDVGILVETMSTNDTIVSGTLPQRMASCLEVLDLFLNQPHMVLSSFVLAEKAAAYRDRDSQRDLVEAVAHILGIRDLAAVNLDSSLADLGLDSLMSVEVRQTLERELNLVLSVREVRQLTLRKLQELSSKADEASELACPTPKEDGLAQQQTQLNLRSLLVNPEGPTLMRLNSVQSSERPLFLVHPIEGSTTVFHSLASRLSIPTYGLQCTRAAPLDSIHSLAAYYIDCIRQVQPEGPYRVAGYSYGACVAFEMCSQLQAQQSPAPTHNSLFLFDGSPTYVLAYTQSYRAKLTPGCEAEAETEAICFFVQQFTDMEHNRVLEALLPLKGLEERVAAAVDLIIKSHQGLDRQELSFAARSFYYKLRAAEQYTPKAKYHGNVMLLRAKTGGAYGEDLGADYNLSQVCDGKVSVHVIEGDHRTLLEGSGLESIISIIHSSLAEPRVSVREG

Turning to `O=C(C1CC1)N1CC[C@@H](CN2C(=O)C3(CCNCC3)N=C2c2ccc(-c3ccc4occc4c3)cc2)C1` [compound 133, 2-[4-(1-Benzofuran-5-yl)phenyl]-3-{[(3R)-1-(cyclopropylcarbonyl)pyrrolidin-3-yl]methyl}-1,3,8-triazaspiro[4.5]dec-1-en-4-one], the IC50 with A2780 ovarian cells [1] was above 10 µM; in test [2], 0.447 µM; with A2780 ovarian cells [3], around 3.16 µM. Further, the inhibition at 10 µM in test [2] was 99.1%.
Regarding `O=C(C1CC1)N1CCC2(CC1)N=C(c1ccc(-c3ccc4occc4c3)cc1)N(CC1CN(C(=O)C3CC3)C1)C2=O` [compound 134, 2-[4-(1-Benzofuran-5-yl)phenyl]-8-(cyclopropylcarbonyl)-3-{[1-(cyclopropylcarbonyl)azetidin-3-yl]methyl}-1,3,8-triazaspiro[4.5]dec-1-en-4-one], the IC50 was above 10 µM in the test with A2780 ovarian cells [1], 0.562 µM in test [2] and 4.47 µM in the test with A2780 ovarian cells [3]. Moreover, the inhibition at 10 µM in test [2] came out at 91.7%.
Consider `CC(C)C(=O)N1CCC2(CC1)N=C(c1ccc(-c3ccc4cnccc4c3)cc1)N(CC1CN(C(=O)C3CC3)C1)C2=O` [compound 137, 3-{[1-(Cyclopropylcarbonyl)azetidin-3-yl]methyl}-2-(4-isoquinolin-6-ylphenyl)-8-(2-methylpropanoyl)-1,3,8-triazaspiro[4.5]dec-1-en-4-one], for which the IC50 in the test with A2780 ovarian cells [1] was around 6.03 µM; in test [2], 0.178 µM; in the test with A2780 ovarian cells [3], around 0.851 µM. The inhibition at 10 µM in test [2] amounted to 112%.
Taken in the same sequence, the figures for `CC1(C(=O)N2CC[C@@H](CN3C(=O)C4(CC4)N=C3c3ccc(-c4ccc5cc(F)ccc5c4)cc3F)C2)CC1` [compound 363, (R)-5-(2-fluoro-4-(6-fluoronaphthalen-2-yl)phenyl)-6-((1-(1-methylcyclopropancecarbonyl)pyrrolidin-3-yl)methyl)-4,6-diazaspiro[2.4]hept-4-en-7-one] were around 1.51 µM, 0.0398 µM, around 0.00646 µM and 94%.
Turning to `Cn1cc(-c2ccc(-c3ccc(C4=NC5(CC5)C(=O)N4C[C@@H]4CCN(C(=O)C5(C)CC5)C4)c(F)c3)cc2)cn1` [compound 364, (R)-5-(3-fluoro-4′-(1-methyl-1H-pyrazol-4-yl)-[1,1′-biphenyl]-4-yl)-6-((1-(1-methylcyclopropanecarbonyl)pyrrolidin-3-yl)methyl)-4,6-diazaspiro[2.4]hept-4-en-7-one], the IC50 in the test with A2780 ovarian cells [1] was 0.229 µM; in test [2], 0.0575 µM; in the test with A2780 ovarian cells [3] it was around 0.00295 µM. The inhibition at 10 µM in test [2] was 89%.
With `COc1ccc2cc(-c3ccc(C4=NC5(CC5)C(=O)N4CC4CN(C(=O)C5(O)CC5)C4)c(F)c3)ccc2c1` [compound 366, 5-(2-fluoro-4-(6-methoxynaphthalen-2-yl)phenyl)-6-((1-(1-hydroxycyclopropanecarbonyl)azetidin-3-yl)methyl)-4,6-diazaspiro[2.4]hept-4-en-7-one], the IC50 in the test with A2780 ovarian cells [1] was 0.562 µM; in test [2] it was 0.0617 µM; with A2780 ovarian cells [3], around 0.00562 µM. Besides, the inhibition at 10 µM in test [2] turned out to be 89%.
Take `Cc1cc(-c2ccc3c(cnn3C)c2)ccc1C1=NC2(CC2)C(=O)N1CC1CN(C(=O)c2nccs2)C1` [compound 518, 5-[2-Methyl-4-(1-methyl-1H-indazol-5-yl)phenyl]-6-{[1-(1,3-thiazol-2-ylcarbonyl)azetidin-3-yl]methyl}-4,6-diazaspiro[2.4]hept-4-en-7-one]: the IC50 in the test on A2780 ovarian cells [1] was around 4.07 µM; in test [2], around 4.68 µM; in the test on A2780 ovarian cells [3], around 3.98 µM. For the same compound, the inhibition at 10 µM in test [2] amounted to 62%.
Consider `O=C(C1CC1)N1CC(CN2C(=O)C3(CC3)N=C2c2ccc(-c3ccc4c(cnn4C4CC4)c3)cc2F)C1` [compound 522, 6-{[1-(Cyclopropylcarbonyl)azetidin-3-yl]methyl}-5-[4-(1-cyclopropyl-1-indazol-5-yl)-2-fluorophenyl]-4,6-diazaspiro[2.4]hept-4-en-7-one], for which the IC50 is above 10 µM in the test with A2780 ovarian cells [1], 1.66 µM in test [2] and 2.88 µM in the test on A2780 ovarian cells [3]. Further, the inhibition at 10 µM in test [2] was determined as 79%.
Regarding `O=C(C1CC1)N1CC(CN2C(=O)C3(CC3)N=C2c2ccc(-c3ccc4nn(CC5CC5)cc4c3)cc2F)C1` [compound 524, 6-{[1-(Cyclopropylcarbonyl)azetidin-3-yl]methyl}-5-{4-[2-(cyclopropylmethyl)-2H-indazol-5-yl]-2-fluorophenyl}-4,6-diazaspiro[2.4]hept-4-en-7-one], the figures for the IC50 (in the test with A2780 ovarian cells [1]; in test [2]; in the test with A2780 ovarian cells [3]) were above 10 µM, 2.09 µM and 4.9 µM, respectively. Moreover, the inhibition at 10 µM in test [2] is 73%.
Consider `CC(C)n1ccc2cc(-c3ccc(C4=NC5(CC5)C(=O)N4CC4CN(C(=O)C5CC5)C4)c(F)c3)ccc21` [compound 525, 6-{[1-(Cyclopropylcarbonyl)azetidin-3-yl]methyl}-5-{2-fluoro-4-[1-(1-methylethyl)-1H-indol-5-yl]phenyl}-4,6-diazaspiro[2.4]hept-4-en-7-one], for which the IC50 in the test with A2780 ovarian cells [1] was above 10 µM; in test [2], 1.05 µM; in the test with A2780 ovarian cells [3], 4.9 µM. Also, the inhibition at 10 µM in test [2] came out at 84%.
For `O=C(C1CC1)N1CC(CN2C(=O)C3(CC3)N=C2c2ccc(-c3ccc4c(cnn4CCO)c3)cc2F)C1` [compound 527, 6-{[1-(Cyclopropylcarbonyl)azetidin-3-yl]methyl}-5-{2-fluoro-4-[1-(2-hydroxyethyl)-1H-indazol-5-yl]phenyl}-4,6-diazaspiro[2.4]hept-4-en-7-one], the values for the IC50 (with A2780 ovarian cells [1]; in test [2]; with A2780 ovarian cells [3]) were above 10 µM, 1.58 µM and around 1.95 µM, respectively. Moreover, in test [2], the inhibition at 10 µM turned out to be 83%.
Turning to `O=C(C1CC1)N1CC(CN2C(=O)C3(CC3)N=C2c2ccc(-c3cc4ccccc4nc3O)cc2)C1` [compound 532, 6-{[1-(Cyclopropylcarbonyl)azetidin-3-yl]methyl}-5-[4-(2-hydroxyquinolin-3-yl)phenyl]-4,6-diazaspiro[2.4]hept-4-en-7-one], the results for the IC50 (with A2780 ovarian cells [1]; in test [2]; with A2780 ovarian cells [3]) were above 10 µM, 5.37 µM and above 10 µM, respectively. For the same compound, the inhibition at 10 µM in test [2] is 58%.
Consider `N#CCCn1ncc2cc(-c3ccc(C4=NC5(CC5)C(=O)N4CC4CN(C(=O)C5CC5)C4)cc3)ccc21` [compound 533, 3-{5-[4-(6-{[1-(Cyclopropylcarbonyl)azetidin-3-yl]methyl}-7-oxo-4,6-diazaspiro[2.4]hept-4-en-5-yl)phenyl]-1H-indazol-1-yl}propanenitrile], for which the IC50 with A2780 ovarian cells [1] is above 10 µM; in test [2] it was 7.59 µM; in the test on A2780 ovarian cells [3], above 10 µM. The inhibition at 10 µM in test [2] turned out to be 54%.
Take `Cc1cc(Cl)c2ccc(-c3ccc(C4=NC5(CC5)C(=O)N4CC4CN(C(=O)C5CC5)C4)cc3)cc2n1` [compound 535, 5-[4-(4-Chloro-2-methylquinolin-7-yl)phenyl]-6-{[1-(cyclopropylcarbonyl)azetidin-3-yl]methyl}-4,6-diazaspiro[2.4]hept-4-en-7-one]: the values for the IC50 in the test with A2780 ovarian cells [1] and in the test on A2780 ovarian cells [3] were 7.76 µM and 6.61 µM, respectively. Besides, in test [2], the inhibition at 10 µM is 53%.
For `O=C(C1CC1)N1CC(CN2C(=O)C3(CC3)N=C2c2ccc(-c3ccc4nncn4c3)cc2)C1` [compound 539, 6-{[1-(Cyclopropylcarbonyl)azetidin-3-yl]methyl}-5-(4-[1,2,4]triazolo[4,3-a]pyridin-6-ylphenyl)-4,6-diazaspiro[2.4]hept-4-en-7-one], the results for the IC50 (in the test with A2780 ovarian cells [1]; in test [2]; in the test with A2780 ovarian cells [3]) were above 10 µM, around 6.31 µM and above 10 µM, respectively. In test [2], the inhibition at 10 µM was determined as 54%.
For the compound `O=C(C1CC1)N1CC(CN2C(=O)C3(CC3)N=C2c2ccc(-c3ccc4ccc(Cl)nc4c3)cc2)C1` [compound 540, 5-[4-(2-Chloroquinolin-7-yl)phenyl]-6-{[1-(cyclopropylcarbonyl)azetidin-3-yl]methyl}-4,6-diazaspiro[2.4]hept-4-en-7-one], the figures for the IC50 (in the test with A2780 ovarian cells [1]; in test [2]; in the test with A2780 ovarian cells [3]) were 9.33 µM, 5.01 µM and 4.47 µM, respectively. The inhibition at 10 µM in test [2] was 64%.

In general, inhibition refers to the relative decrease from the control value, in per cent.
